Consider seven compounds from patent publication US10800775B2, “Pyrazolyl pyrrolo[2,3-b]pyrmidine-5-carboxylate analogs and methods of making the same” (ACLARIS THERAPEUTICS, INC., priority 2017, dated 2020).

The structures appear in SMILES notation. A value given as a limit tells only on which side of the number the result lay.

Broadly, the IC50 is the concentration needed to halve the response being measured.

Experiment [1] deals with IFNγ stimulated STAT1 phosphorylation on Tyr701 (JAK1/2). The experiment is described as follows: JAK1/2 phospho-STAT1 cellular target modulation assay, IFNγ stimulated human PBMC. The note with it: IFNγ 10 ng/ml, read-out: Infγ-STAT1 IC50. In kind it is cell-based. The text has this: (§1) Target modulation was based upon the ability of a compound to inhibit JAK isoform specific phosphorylation of selected substrates. IL-2 stimulated STAT5 phosphorylation on Tyr694 was used to assess JAK1/3 compound selectivity. GM-CSF stimulated STAT5 phosphorylation on Tyr694 was used to assess JAK2 compound selectivity. IFNγ stimulated STAT1 phosphorylation on Tyr701 was used to assess JAK1/2 compound selectivity. For all three assays, human PBMC from frozen stocks were thawed, pelleted, resuspended in complete media (90% RPMI, 10% heat inactivated FBS, 10 mM HEPES, 47 μM 2-ME, pen/strep) and placed in wells of a 96 well V-bottom plate at 200,000 per well in 120 μl complete media. Compounds were added as 15 μl per well of 10× working stock solutions in complete media with 1% DMSO (or medium with 1% DMSO for controls) and placed on a plate shaker in a 37° C. incubator with 5% CO2 for 1 hour with gentle shaking (setting of 3). Stimulation used the addition of soluble cytokines. For the JAK1/3 phospho-STAT5 assay, 15 μl of 10× working stock recombinant human IL-2 was added to a final concentration of 25 ng/ml. For the JAK2 phospho-STAT5 assay, 15 μl of 10× working stock recombinant human GM-CSF was added to a final concentration of 5 ng/ml. For the JAK1/2 phospho-STAT1 assay, 15 μl of 10× working stock of recombinant human IFNγ was added to a final concentration of 10 ng/ml. Plates were then placed back on the plate shaker in the incubator for an additional 5, 5 and 10 minutes respectively upon which the plates were removed from the incubator, sealed with a plate sealer and the cells pelleted at 400×g for 5 minutes. After pelleting, the media was removed by aspiration and the cells were lysed in ELISA specific cell lysis buffer. The levels of phospho-STAT5 were determined using a Phospho (Tyr694)/Total STAT5a,b Whole Cell Lysate kit from Meso Scale Discovery. Levels of phospho-STAT1 were determined using a CST-PathScan Phospho-STAT1 (Tyr701) Sandwich ELISA kit.

The target in the next experiment is JAK3 (a.a. 781-1124) (Homo sapiens (Human), UniProt P52333). Nature of the experiment: JAK3 enzyme activity assay (SRCtide phosphorylation, Caliper). In kind it is biochemical. The note with it: 2.5 nM JAK3, 1 μM SRCtide, 1 uM ATP; read-out: JAK3 Inhibition IC50. Here is the method:
The activity of JAK3 (a.a. 781-1124, ThermoFisher) was quantified by measuring the phosphorylation of SRCtide (FAM-GEEPLYWSFPAKKK-NH2). Kinase reactions were run in a 384-well Greiner plate with 2% final DMSO concentration under the buffer conditions of 20 mM HEPES, pH 7.5, 10 mM MgCl2, 0.01% BSA, and 0.0005% Tween-20. The kinase reaction components were 2.5 nM JAK3, 1 μM SRCtide peptide and 1 uM ATP. Examples were tested in dose-response starting at 2 μM (11 concentrations, 3-fold serial dilution, duplicate reactions). The reactions were incubated at room temperature for 40 minutes, then stopped by adding a 1:1 volume of 30 mM EDTA in 20 mM HEPES, pH 7.5 (15 mM EDTA final). After the reaction was stopped, the phosphorylated and unphosphorylated peptides were separated and quantified using a Caliper LC3000/EZ-Reader system and HTS Well Analyzer Software (Caliper, A PerkinElmer Company, Hopkinton, Mass.). GraFit (Erithacus Software Ltd., Horley, U.K.) was used to calculate inhibitor potency by fitting dose-response data to the 4-parameter logistical IC50 equation.

For a further experiment, the target named is JAK1 (Homo sapiens (Human), UniProt P23458). Nature of the experiment: JAK1 enzyme activity assay (Z-lyte, Thermo Fisher Selectscreen). In kind it is biochemical. The note with it: 2 μM Tyr 06 peptide, read-out: JAK1 Inhibition IC50. As for the experimental part: The inhibitory potency of candidate compounds of JAK1 done at Thermo Fisher Scientific in their Selectscreen using a Z-lyte assay. The 2×JAK1/Tyr 06 mixture is prepared in 50 mM HEPES pH 6.5, 0.01% BRIJ-35, 10 mM MgCl2, 1 mM EGTA, 0.02% NaN3. The final 10 μL of the Kinase Reaction consists of 21.2-91.5 ng JAK1 and 2 μM Tyr 06 in 50 mM HEPES pH 7.0, 0.01% BRIJ-35, 10 mM MgCl2, 1 mM EGTA, 0.01% NaN3. After the 1 hour Kinase Reaction incubation, 5 μL of a 1:128 dilution of Development Reagent is added.
Sequence of JAK1 (P23458 whole entry): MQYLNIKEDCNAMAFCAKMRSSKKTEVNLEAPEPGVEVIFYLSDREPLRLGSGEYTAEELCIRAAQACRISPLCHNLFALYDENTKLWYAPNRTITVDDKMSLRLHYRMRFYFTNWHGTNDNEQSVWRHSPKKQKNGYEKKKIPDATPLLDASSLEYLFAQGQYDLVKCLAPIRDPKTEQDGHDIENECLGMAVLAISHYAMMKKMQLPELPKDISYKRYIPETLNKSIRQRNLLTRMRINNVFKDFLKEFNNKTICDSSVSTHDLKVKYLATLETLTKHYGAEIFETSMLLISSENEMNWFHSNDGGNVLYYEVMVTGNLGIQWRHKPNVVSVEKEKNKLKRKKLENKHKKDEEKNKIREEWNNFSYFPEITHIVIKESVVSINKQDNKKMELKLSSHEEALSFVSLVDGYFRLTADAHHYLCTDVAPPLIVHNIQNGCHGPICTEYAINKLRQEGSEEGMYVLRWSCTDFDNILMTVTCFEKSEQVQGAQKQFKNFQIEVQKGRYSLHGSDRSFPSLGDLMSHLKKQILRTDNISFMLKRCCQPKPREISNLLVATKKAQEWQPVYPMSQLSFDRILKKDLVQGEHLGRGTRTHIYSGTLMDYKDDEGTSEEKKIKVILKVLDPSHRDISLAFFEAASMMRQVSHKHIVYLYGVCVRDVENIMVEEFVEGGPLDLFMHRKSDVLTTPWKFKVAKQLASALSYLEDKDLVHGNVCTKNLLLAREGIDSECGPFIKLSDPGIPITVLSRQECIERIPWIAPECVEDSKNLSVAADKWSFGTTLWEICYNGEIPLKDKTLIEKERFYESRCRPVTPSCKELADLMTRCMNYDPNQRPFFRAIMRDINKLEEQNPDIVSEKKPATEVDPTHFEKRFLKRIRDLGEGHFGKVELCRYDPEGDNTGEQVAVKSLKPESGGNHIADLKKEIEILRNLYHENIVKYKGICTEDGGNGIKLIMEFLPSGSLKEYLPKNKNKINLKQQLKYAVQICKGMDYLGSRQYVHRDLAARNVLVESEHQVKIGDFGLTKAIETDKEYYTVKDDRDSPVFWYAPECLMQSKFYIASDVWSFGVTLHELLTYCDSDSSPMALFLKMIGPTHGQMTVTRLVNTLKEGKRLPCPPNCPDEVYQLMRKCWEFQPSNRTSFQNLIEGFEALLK
Background signal is defined in the absence of enzyme and uninhibited signal is defined in the presence of vehicle (2% DMSO) alone. Compounds were evaluated in an 11 point dose-response ranging from […] to 0.34 nM. IC50 values of compounds are determined using a 4 parameter logistical fit of emission ratio as a function of the concentration of compound.

Experiment [2] relates to IL-2 stimulated STAT5 phosphorylation on Tyr694 (JAK1/3). The experiment is described as follows: JAK1/3 phospho-STAT5 cellular target modulation assay, IL-2 stimulated human PBMC. In kind it is cell-based. To be noted: IL-2 25 ng/ml, read-out: IL2-STAT5 Inhibition IC50.
Text: as §1

Sequence of JAK3 (a.a. 781-1124) (P52333 781-1124): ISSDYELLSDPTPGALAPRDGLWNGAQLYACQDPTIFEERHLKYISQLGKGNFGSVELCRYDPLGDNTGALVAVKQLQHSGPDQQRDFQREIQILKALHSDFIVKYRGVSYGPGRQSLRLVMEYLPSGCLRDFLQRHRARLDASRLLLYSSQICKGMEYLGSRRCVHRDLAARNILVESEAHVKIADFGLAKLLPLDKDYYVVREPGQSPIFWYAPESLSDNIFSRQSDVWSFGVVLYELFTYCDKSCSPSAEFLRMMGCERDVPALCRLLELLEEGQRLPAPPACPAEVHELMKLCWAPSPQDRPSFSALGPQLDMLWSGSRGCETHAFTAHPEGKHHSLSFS

Take `CCOC(=O)c1cnc2[nH]ccc2c1-c1cnn(C(CC#N)C2CCCC2)c1` (racemic) [Example 1, ethyl 4-(1-(2-cyano-1-cyclopentylethyl)-1H-pyrazol-4-yl)-1H-pyrrolo[2,3-b]pyridine-5-carboxylate]: the half-maximal inhibitory concentration (IC50) in experiment [1] is 100 to 1000 nM; on JAK3 (a.a. 781-1124) it was 10 to 100 nM; at JAK1 it was at most 10 nM; in experiment [2] it was 100 to 1000 nM.
`CC(C)OC(=O)c1cnc2[nH]ccc2c1-c1cnn([C@H](CC#N)C2CCCC2)c1` (single isomer, unassigned; enantiomer 1) [Example 18, isopropyl 4-(1-(2-cyano-1-cyclopentylethyl)-1H-pyrazol-4-yl)-1H-pyrrolo[2,3-b]pyridine-5-carboxylate, enantiomer 1]: the IC50 was 100 to 1000 nM in experiment [1], 10 to 100 nM on JAK3 (a.a. 781-1124), at most 10 nM on JAK1 and at most 100 nM in experiment [2].
`CC(C)OC(=O)c1cnc2[nH]ccc2c1-c1cnn([C@@H](CC#N)C2CCCC2)c1` (single isomer, unassigned; enantiomer 2) [Example 19, isopropyl 4-(1-(2-cyano-1-cyclopentylethyl)-1H-pyrazol-4-yl)-1H-pyrrolo[2,3-b]pyridine-5-carboxylate, enantiomer 2]: the IC50 in experiment [1] was 100 to 1000 nM; at JAK3 (a.a. 781-1124), 10 to 100 nM; on JAK1, 10 to 100 nM; in experiment [2], at most 100 nM.
`CCOC(=O)c1cnc2[nH]ccc2c1-c1cnn([C@H](CC#N)C2CCCC2)c1` (single isomer, unassigned; stereoisomer 1) [Example 16, ethyl 4-(1-(2-cyano-1-cyclopentylethyl)-1H-pyrazol-4-yl)-1H-pyrrolo[2,3-b]pyridine-5-carboxylate stereoisomer 1]: the IC50 in experiment [1] is 100 to 1000 nM; at JAK3 (a.a. 781-1124), 10 to 100 nM; on JAK1 it was at most 10 nM; in experiment [2], 100 to 1000 nM.
As to `CCOC(=O)c1cnc2[nH]ccc2c1-c1cnn([C@@H](CC#N)C2CCCC2)c1` (single isomer, unassigned; stereoisomer 2) [Example 17, ethyl 4-(1-(2-cyano-1-cyclopentylethyl)-1H-pyrazol-4-yl)-1H-pyrrolo[2,3-b]pyridine-5-carboxylate stereoisomer 2], the IC50 lay in the range of 100 to 1000 nM in experiment [1], 10 to 100 nM at JAK3 (a.a. 781-1124), 10 to 100 nM on JAK1 and 100 to 1000 nM in experiment [2].
As for `CCOC(=O)c1cnc2[nH]ccc2c1-c1cnn(C2(CC#N)CN(S(=O)(=O)CC)C2)c1` [Example 9, ethyl 4-(1-(3-(cyanomethyl)-1-(ethylsulfonyl)azetidin-3-yl)-1H-pyrazol-4-yl)-1H-pyrrolo[2,3b]pyridine-5-carboxylate], the IC50 in experiment [1] was 100 to 1000 nM; on JAK3 (a.a. 781-1124), 10 to 100 nM; at JAK1, at most 10 nM; in experiment [2], at most 100 nM.
Consider `CCCOC(=O)c1cnc2[nH]ccc2c1-c1cnn([C@H](CC#N)C2CCCC2)c1` [Example 20, propyl (R)-4-(1-(2-cyano-1-cyclopentylethyl)-1H-pyrazol-4-yl)-1H-pyrrolo[2,3-b]pyridine-5-carboxylate], for which the IC50 was 100 to 1000 nM in experiment [1], 10 to 100 nM on JAK3 (a.a. 781-1124), at most 10 nM at JAK1 and at most 100 nM in experiment [2].
